# “Also recorded” adds a separate entry of the source.
# How the values were obtained:
# full-length human AR = biological target: T1, full-length human AR (Homo sapiens, UniProt P10275); assay: ARR3tk-luciferase reporter assay in PC3 cells, wild-type AR; type: cell-based; details: transient AR, R1881
# T1 construct: expressed in transfected cells; host or cells: PC3 (AR-negative human prostate cancer cells)
# T1 sequence (P10275 1-920): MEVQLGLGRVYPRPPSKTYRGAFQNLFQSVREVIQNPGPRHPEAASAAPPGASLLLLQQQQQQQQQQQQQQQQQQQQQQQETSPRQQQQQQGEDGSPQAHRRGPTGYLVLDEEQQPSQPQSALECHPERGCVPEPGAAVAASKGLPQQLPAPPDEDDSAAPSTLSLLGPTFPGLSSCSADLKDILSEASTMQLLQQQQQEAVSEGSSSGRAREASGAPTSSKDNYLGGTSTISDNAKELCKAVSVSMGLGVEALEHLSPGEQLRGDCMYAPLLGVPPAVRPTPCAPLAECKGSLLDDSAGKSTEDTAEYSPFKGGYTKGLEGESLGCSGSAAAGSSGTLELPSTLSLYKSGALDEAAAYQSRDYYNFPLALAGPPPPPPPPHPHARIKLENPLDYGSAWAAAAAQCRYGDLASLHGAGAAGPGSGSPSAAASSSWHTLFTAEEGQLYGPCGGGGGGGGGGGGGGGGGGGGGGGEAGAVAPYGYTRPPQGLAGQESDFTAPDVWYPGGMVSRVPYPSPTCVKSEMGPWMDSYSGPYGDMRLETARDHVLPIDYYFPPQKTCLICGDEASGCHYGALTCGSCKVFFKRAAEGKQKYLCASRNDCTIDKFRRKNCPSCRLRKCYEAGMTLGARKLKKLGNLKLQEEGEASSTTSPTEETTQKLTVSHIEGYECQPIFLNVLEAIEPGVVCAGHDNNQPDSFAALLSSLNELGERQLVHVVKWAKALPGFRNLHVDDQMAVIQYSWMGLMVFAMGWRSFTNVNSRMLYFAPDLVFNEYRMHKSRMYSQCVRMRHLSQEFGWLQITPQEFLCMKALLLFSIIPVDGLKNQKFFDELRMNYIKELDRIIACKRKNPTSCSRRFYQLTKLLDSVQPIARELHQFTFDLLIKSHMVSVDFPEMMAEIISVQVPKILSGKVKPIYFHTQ
# Procedure: (§1) 9. Transient Transfection: The PC3/MCF7 cells were seeded into a 96-well plate (2,000 cells/well). After 24 hrs, the wild-type AR (50 ng/well)/AR mutants and AR3TK-luciferase plasmids (1:3) were co-transfected into PC3 cells or ERE-luciferase (50 ng/well) was transfected into MCF7 cells using transfection reagent TT20. 24 hrs after the transfection, the cells were treated with the compounds at various concentrations. And 24 hrs later, the cells were lysed and the reading was taken using a luminometer.
# AR Q592D mutant = biological target: T2, AR Q592D mutant (Homo sapiens, UniProt P10275, Q592D); assay: ARR3tk-luciferase reporter assay in PC3 cells, AR Q592D; type: cell-based
# T2 construct: Full-length human AR (hARWT) or splice variant (AR-V7) was encoded on a pcDNA3.1 expression plasmid; expressed in transfected cells; host or cells: PC3
# Procedure: 8. Mutation Studies: The residues in the predicted binding site were mutated using the Quickchange™ Site-Directed Mutagenesis Kit as per the instructions.
# as §1
# PARP = assay: Western blots against PARP / cleaved PARP (apoptosis); type: cell-based, human; details: PC3 luciferase assay lysates
# Procedure: (§2) Cell lysates (40 μl) from luciferase assays (96-well plate) were separated on a 10% SDS-polyacrylamide mini gel. Protein was transferred to methanol-charged PVDF membranes and probed with anti-AR441 (mouse, Sigma™) monoclonal primary antibody. Blots were also probed with polyclonal anti-actin (rabbit, Sigma™) to show equal loading and polyclonal anti-PARP/anti-cleaved PARP (rabbit, Sigma™) to test for induction of apoptosis. Lysates from CWR-R1 cells were additionally probed with polyclonal anti-FKBP5 (rabbit, Sigma™) following 2 days of incubation with compounds.
# FKBP5 = assay: Western blot FKBP5 protein in R1-AD1 cells; type: cell-based, human
# Procedure: as §2
# YFP-AR = biological target: T3, YFP-AR (Homo sapiens, UniProt P10275); assay: Luciferase assay with YFP-AR in PC3 cells; type: cell-based
# T3 construct: plasmids encoding YFP-tagged full-length AR (yellow fluorescent protein, YFP-AR); expressed in transfected cells; host or cells: PC3
# T3 sequence (P10275 1-920): T1 sequence (P10275 1-920)
# Description: the underlined primer sections anneal to the specified template, although their 5′-extensions (italicized) are complementary to the corresponding primer sequence of the other PCR. Plasmid assembly is achieved by mixing the PCR products from each reaction (Klock, H. E. et al. (2008) Combining the polymerase incomplete primer extension method for cloning and mutagenesis with microscreening to accelerate structural genomics efforts. Proteins 71, 982-994), followed by transformation into chemically competent bacteria. A similar strategy was used to clone the AR-DBD+hinge into the Pan4 vector (avidity) expressing the N-terminal biotinylation sequence ([…] ) and C-terminal His tag. YFP-AR plasmid was a gift from Dr. Jan Trapman (van Royen, M. E. et al. (2012) Stepwise androgen receptor dimerization. J. Cell Sci. 125, 1970-1979) and is based on pEYFP-C1 (Clontech™). YFP-V7 was constructed by polymerase incomplete primer extension method using the following primers and templates: AR-V7 insert from pcDNA3. AR-V7 template
# LNCaP xenograft = assay: Castration-resistant LNCaP xenografts in mice; details: 100 mg/kg i.p. twice daily, 4 weeks
# Procedure: 6-8-Week-old nude mice (Harlan Sprague-Dawley) weighing 25-31 g were subcutaneously inoculated with LNCaP cells (106 cells in BD Matrigel, BD Biosciences) at the posterior dorsal site. Tumor volume, body weight, and serum PSA levels were measured weekly. When serum PSA levels reached more than 25 ng/ml, mice were castrated. […] Calipers were used to measure the three perpendicular axes of each tumor to calculate the tumor volume. Mice were also weighed weekly and monitored daily for signs of toxicity, including death, lethargy, blindness, and disorientation
# [1] = biological target: AR ligand binding domain (LBD) (Homo sapiens, UniProt P10275); assay: Biolayer interferometry (BLI) assay, small molecule binding to AR
# Procedure: 4. Biolayer interferometry (BLI) assay: The direct reversible interaction between small molecules and the AR was measured as previously described (Lack, Axerio-Cilies et al. 2011).
# [2] = system: MDV3100-resistant LNCaP cells (MR49F); assay: Cell viability (MTS) assay, MDV3100 (Enzalutamide)-resistant cells; type: cell-based, human; details: 0.1 nM R1881
# Procedure: 1. Cell Culture: LNCaP and PC3 human prostate cancer cells were obtained from American Type Culture Collection (ATCC, Manassas, Va.) and grown in RPMI 1640 medium supplemented with 5% fetal bovine serum (FBS) (Invitrogen). […]. All cells were maintained at 37° C. in 5% CO2.
# 7. Cell viability assay: The PC3, LNCaP, and MDV3100-resistant cells were plated at 3,000 cells per well in RPMI 1640 containing 5% charcoal stripped serum (CSS) in a 96-well plate, treated with 0.1 nM R1881 and compounds (0-25 μM) for 96 hrs.
# AR AF1 = assay: AF1 assay (CREB and Gal4 plasmid in PC3 cells); type: cell-based
# Description: As there are other known binding sites in AR including the hormone binding site (HBS), activation function-2 (AF2) site, binding function 3 (BF3) and N-terminal activation function-1 (AF1) site, we utilized other assays to rule out possible binding to those sites. […] Then we used an AF1 assay to measure whether the potency of this compound comes from the inhibition of AF1 transactivation.
# T2 sequence (P10275 whole entry Q592D, canonical isoform): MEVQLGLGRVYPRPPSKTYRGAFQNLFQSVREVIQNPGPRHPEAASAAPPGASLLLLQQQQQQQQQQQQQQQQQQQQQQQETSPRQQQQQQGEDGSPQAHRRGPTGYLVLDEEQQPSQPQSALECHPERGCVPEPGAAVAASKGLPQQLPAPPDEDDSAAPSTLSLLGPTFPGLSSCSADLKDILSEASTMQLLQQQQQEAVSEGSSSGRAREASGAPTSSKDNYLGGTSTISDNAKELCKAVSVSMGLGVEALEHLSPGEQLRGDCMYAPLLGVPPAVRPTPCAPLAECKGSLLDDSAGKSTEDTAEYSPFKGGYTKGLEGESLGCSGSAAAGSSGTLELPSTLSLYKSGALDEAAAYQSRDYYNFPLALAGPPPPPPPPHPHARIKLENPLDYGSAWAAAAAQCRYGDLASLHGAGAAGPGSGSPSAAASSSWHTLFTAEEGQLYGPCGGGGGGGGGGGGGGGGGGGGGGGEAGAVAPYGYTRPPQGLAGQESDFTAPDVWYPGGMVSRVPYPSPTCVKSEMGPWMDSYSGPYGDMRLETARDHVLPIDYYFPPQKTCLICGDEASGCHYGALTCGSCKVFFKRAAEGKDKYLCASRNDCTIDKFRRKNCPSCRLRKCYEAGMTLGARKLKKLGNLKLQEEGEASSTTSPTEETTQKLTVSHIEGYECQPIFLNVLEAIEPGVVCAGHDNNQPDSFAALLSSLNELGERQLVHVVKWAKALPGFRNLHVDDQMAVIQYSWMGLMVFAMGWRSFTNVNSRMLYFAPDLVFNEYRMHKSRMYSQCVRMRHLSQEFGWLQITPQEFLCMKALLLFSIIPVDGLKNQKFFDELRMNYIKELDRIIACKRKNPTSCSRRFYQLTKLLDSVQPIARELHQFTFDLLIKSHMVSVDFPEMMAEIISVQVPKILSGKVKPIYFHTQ
smiles,measurement,setting,value
Brc1ncn(-c2csc(N3CCOCC3)n2)c1Br [Compound 14449],IC50,full-length human AR,340 nM
same,concentration at which Q592D AR is inhibited,AR Q592D mutant; PC3 cells,≥ 25 µM
same,toxicity / induction of apoptosis (PARP cleavage),PARP,little or no toxicity
same,"FKBP5 protein expression, R1-AD1 cells",FKBP5,reduced
same,inhibition of YFP-AR driven luciferase expression,YFP-AR,could be inhibited
same,toxic effect on animals,LNCaP xenograft,no observable toxic effect
same,LNCaP xenograft tumor volume,"LNCaP xenograft; castrated mice, 100 mg/kg",reduces tumor volume; also recorded: inhibited to levels comparable with enzalutamide treatment
same,serum PSA,"LNCaP xenograft; castrated mice, 100 mg/kg",abolishes PSA production; also recorded: inhibited to levels comparable with enzalutamide treatment
"c1ccc(-c2csc(N3CCOCC3)n2)cc1 [Compound 14228, 4-(4-phenylthiazol-2-yl)morpholine]",binding in the C-terminal LBD (BLI),[1],no binding
same,"inhibition of cell growth, MDV3100/Enzalutamide-resistant cells",[2],strongly inhibits
same,IC50,full-length human AR,2360 nM
same,inhibition of Q592D AR luciferase expression,AR Q592D mutant,not affected
same,inhibition of CREB and Gal4 (AF1),AR AF1,no inhibition
same,toxicity / induction of apoptosis (PARP cleavage),PARP,little or no toxicity
same,"FKBP5 protein expression, R1-AD1 cells",FKBP5,reduced
same,inhibition of YFP-AR driven luciferase expression,YFP-AR,could be inhibited

# — patent publication US10011573B2, “Human androgen receptor DNA-binding domain (DBD) compounds as therapeutics and methods for their use” (The University of British Columbia, priority 2014, dated 2018)
